Data published in patent US20040023840A1, “Combination of organic compounds” (priority 2003, published 2004).
Where two headings read alike, the source gives them in different places.

Columns and labels:
[1] = system: SHR with endothelial dysfunction; test: Survival of SHR with chronic NO synthase blockade (L-NAME), endothelial dysfunction model; type: in vivo, rat; conditions: for survival rate: SHR + L-NAME 12 weeks; for kidney lesions / proteinuria: low doses of valsartan and enalapril
Description: Male 20-24 week-old SHR, purchased from RCC Ldt (Fullingsdorf, Switzerland), are maintained in a temperature- and light-controlled room with free access to rat chow (Nafag 9331, Gossau, Switzerland) and tap water. The experiment is p rformed in accordance with the NIH guidelines and approved by the Canton Veterinary office (Bew 161, Kantonales V t rin{overscore (a)}ramt, Liestal, Switzerland). All rats are treated with the NO synthase inhibitor L-NAME (Sigma Chemicals) administered in drinking water (50 mg/l) for 12 weeks. The average daily dose of L-NAME calculated from the water consumed was 2.5 mg/kg/d (range 2.1-2.7).
(§1) The rats are divided into 5 groups: group 1, control (n=40); Group 2, valsartan (val5, 5 mg/kg/d; n=40); Group 3, enalapril (ena1, 1 mg/kg/d; n=30); Group 4, a combination (ena1val5) of enalapril (1 mg/kg/d) and valsartan (5 mg/kg/d); n=30) and Group 5, valsartan (val50, 50 mg/kg/d; n=30). The drugs are administered in drinking fluid. […] The pressor effect of Ang II at […] obtained in controls normotensive rats is reduced by 49% and 73% after treatment with valsartan 5 and 50 mg/kg/d, respectively (Gervais et al. 1999). The response to Ang I injected in Wistar Kyoto rats pretreated with enalapril 1 mg/kg/d or valsartan 5 mg/kg/d is similar.
Body weight is measured every week. Systolic blood pressure and heart rate are recorded by tail cuff plethysmography 3 and 2 weeks before starting the study and at 2 weeks after drug administration. Urine is collected over a 24 hour period from rats kept in individual (metabolic) cages the week before starting treatment and at weeks 4 and 12 for volume measurement and protein, creatinine, sodium and potassium determination using standard laboratory methods. At the same time points, blood samples are withdrawn from the retro-orbital plexus (maximum 1 ml) for creatinine, Na^+ and K^+ assays.
Ten rats from each group are sacrificed at 4 weeks for collection of kidney and heart for morphological analysis. The remaining rats are sacrificed at 12 weeks. Cardiac and kidney weight is recorded. Terminal blood sampling is performed in 5% EDTA at 4 (morphometry study) and 12 (end of the study) weeks for aldosterone, determination by radioimmunoassay using a DPC coat-a-count aldosterone-RIA kit (Bühlmann, Switzerland).
All data are expressed as mean±SEM. Statistical analysis is performed using a one-way ANOVA, followed by a Duncan's multiple range test and a Newman-Keuls test, 7 for comparison between the different groups. Results with a probability value of less than 0.05 are deemed statistically significant.

response to Ang I = test: Response to Ang I injected in pretreated Wistar Kyoto rats; type: in vivo, rat; conditions: Wistar Kyoto rats pretreated with enalapril 1 mg/kg/d or valsartan 5 mg/kg/d; the two compared
Description: as §1

pressor effect of Ang II = conditions: Ang II at 1 mg/kg, normotensive rats, cited from earlier work
[2] = non-blood pressure reducing doses in drinking fluid: valsartan 5 mg/kg/d, enalapril 1 mg/kg/d, or both combined

In the case of `CCOC(=O)[C@H](CCc1ccccc1)N[C@@H](C)C(=O)N1CCC[C@H]1C(=O)O` [enalapril], the survival rate [1, 2] is reported as 55%, the kidney lesions ([1]; SHR + L-NAME) is reported as “no reduction” and the proteinuria ([1]; SHR + L-NAME) is reported as “no decrease”. For the same compound, the “response to Ang I” value (response to Ang I) was “similar”.

For `CCCCC(=O)N(Cc1ccc(-c2ccccc2-c2nnn[nH]2)cc1)[C@H](C(=O)O)C(C)C` [valsartan], the survival rate ([1]; high dose valsartan 50 mg/kg/d in drinking fluid) was 95%, the survival rate [1, 2] was 67% and the kidney lesions ([1]; SHR + L-NAME) was “no reduction”. For the same compound, the proteinuria ([1]; SHR + L-NAME) was “no decrease”, the systolic blood pressure ([1]; SHR + L-NAME, valsartan 50 mg/kg, increase in blood pressure significantly attenuated) was “above 250 mmHg” and the “response to Ang I” value (response to Ang I) was “similar”. For the same compound, the “reduction of pressor effect of Ang II” value (pressor effect of Ang II; valsartan 5 mg/kg/d (Gervais et al. 1999)) was 49% and the “reduction of pressor effect of Ang II” value (pressor effect of Ang II; valsartan 50 mg/kg/d (Gervais et al. 1999)) was 73%.
